# Laboratory results taken from patent publication US8617540B2, “Combinational chemotherapy treatment” (Fox Chase Cancer Center, priority 2009, dated 2013).
# Like-named read-outs stand apart in the source and are kept apart here.
# Tests used:
# HT-29 = assay: Caspase inhibitor rescue from cell killing by 5-FU and HmdU; format: cell-based; settings: caspase inhibitor added
# Method: Further, experiments were performed to uncover whether the combined treatment with 5-FU and HmdU induces PARP1 cleavage, which would indicate that apoptosis is the pathway responsible for the cytotoxic effects. […] Both of the results in FIGS. 17 and 18 indicate that the cell killing by the combined drug treatment is not via apoptosis. However, the combination has a synergistic effect on the cytotoxicities of 5-FU and HmdU, and derivatives thereof.
# HT-29 cells = assay: Cell cycle analysis of synchronized cells; format: cell-based; settings: 48 h of treatment with 5-FU and HmdU
# Method: Panel A is a cell cycle analysis of synchronized HT-29 cells with 5-FU, HmdU, and combined 5-FU/HmdU treatment over a period of two days.
# First, clonogenic assays were performed to determine the time course of the combination of 5-FU and HmdU. […] Subsequently, cell cycle distribution was assessed.
# [1] = system: cells treated with 5-FU and HmdU; assay: Effect of PARP-1 inhibitors on cytotoxicity of 5-FU and HmdU; settings: PARP-1 inhibitor added
# Text: (§1) Taking account of effect of 3-aminobenzamide on cell cycle shown FIG. 14B, effects of PARP-1 inhibitors on cytotoxicity were examined.
# HT-29 colon cancer cells = assay: Cell growth assay (WST-1), combination analysed with CombiTool; format: cell-based; settings: for synergistic activity on growth inhibition in combination with HmdU: 5-FU related compound used with HmdU; for synergistic activity on growth inhibition when combined with 5-FU: HmdU related drug combined with 5-FU
# Method: In a typical cell growth assay, cells were plated in 96-well plates on Day 0, and indicated concentrations of drugs were added on Day 1. Each condition was replicated in triplicate. Subsequently, quantities of metabolically active cells in each well were measured by WST-1 assay on Day 4. The WST-1 assay (assay reagents from Roche) measures the concentration of formazan converted from a tetrazolium salt, WST-1, by a mitochondrial succinate-tetrazolium-reductase system.
# CombiTool is a computer program for the analysis of combination effects of biologically active agents and is described in Dressler et al. (Computers and Biomedical Research (1999) 32:145-160). It performs model calculations and an analysis of experimental combination effects for two or three agents according to both the Bliss independence and the Loewe additivity criteria. Zero interaction response surfaces are calculated from single-agent dose-response relations and compared to experimental combination data. The calculation of response surfaces for Loewe additivity is based on a new approach which combines the implicit definition equation in terms of doses alone with single-agent dose-response relations. CombiTool has a built-in graphics facility which allows for the direct visualization of the response surfaces or the corresponding contour plots and the experimental data.
# In the present example, the in vitro effects of 5-FU and HmdU treatment were assessed in several cell lines. […] FIG. 1B show the results interpreted with the CombiTool program which indicates synergistic experimental data by large gray circles above the lower additive results when the drugs are used alone. […] FIGS. 1C and 1D show similar results from experiments in the colon cancel cell line, HCT116.
# Further testing was performed on the HT-29 cell line to assess whether compounds that are structurally and/or functionally related to 5-FU and HmdU also display synergistic activity on growth inhibition. In a series of experiments 5-FU was tested with: (1) 5-Hydroxymethyluracil (HmU), a base form which is subsequently converted to a nucleoside form, HmdUrd; (2) Deoxyuridine (dUrd), a nucleoside which is different from HmdU by the lack of modification at the 5-carbon position; and (3) 5-Hydroxydeoxyuridine (OHdU), a nucleoside which is different from HmdU by the lack of a methyl group in the 5-carbon modification. […] See FIG. 7A-7D (HmU—obtained from Cayman Chemical and Aldrich Chemical Company, respectively+5FU), FIG. 8A-8B (dUrd+5FU), and FIG. 9A-9B (OHdU+5FU).
# Another set of experiments tested several alternative 5-FU agents in combination with HmdU to determine if synergy exists when the agents were administered in combination. The 5-FU related compounds used with HmdU were: (1) 5-Fluorodeoxyuridine (5-FdU), a deoxyribonucleoside (2) Deoxyadenosine (dA), an agent capable of decreasing dTTP; and (3) Raltitrexed, a structural analog of 5,10-methylene tetrahydrofolate (CH2THF), and a specific inhibitor of thymidylate synthase (TS). […] See FIGS. 11 (dA) and 12 (Raltitrexed).
# [2] = system: cells treated with 5-FU and HmdU
# Text: as §1
Compound,synergistic activity on growth inhibition in combination with HmdU (HT-29 colon cancer cells),synergistic activity on growth inhibition when combined with 5-FU (HT-29 colon cancer cells),other results
CC(C)[C@H](NC(=O)c1ccc2ccccc2n1)C(=O)N[C@@H](CC(=O)O)C(=O)COc1c(F)cccc1F [QVD],–,–,rescue from cell killing by the 5-FU and HmdU treatment (HT-29): did not rescue
NC(=O)c1cccc(N)c1 [3-aminobenzamide],–,–,effect of added agent on the cell cycle (HT-29 cells): allows cells to complete DNA replication; effect on growth inhibition by 5-FU and HmdU [1]: rescued cells from growth inhibition
"O=c1[nH]c(=O)n([C@H]2C[C@H](O)[C@@H](CO)O2)cc1F [5-FdU, 5-Fluorodeoxyuridine]",strong synergy,–,–
"Nc1ccc2c3c(cccc13)C(=O)NC2=O [4-amino-1,8-naphtalimide]",–,–,effect on growth inhibition by 5-FU and HmdU [2]: rescued cells from growth inhibition
Cn1c(=O)c2c(ncn2C)n(C)c1=O [caffeine],–,–,effect of added agent on the cell cycle (HT-29 cells): overcomes G2/M arrest
"Nc1ncnc2c1ncn2[C@H]1C[C@H](O)[C@@H](CO)O1 [dA, Deoxyadenosine]",did not show any significant synergistic effects,–,–
"O=c1ccn([C@H]2C[C@H](O)[C@@H](CO)O2)c(=O)[nH]1 [dUrd, Deoxyuridine]",–,did not show any significant synergistic effects,–
"O=c1[nH]c(=O)n([C@H]2C[C@H](O)[C@@H](CO)O2)cc1O [OHdU, 5-Hydroxydeoxyuridine]",–,did not show any significant synergistic effects,–
"O=c1[nH]cc(CO)c(=O)[nH]1 [HmU, 5-Hydroxymethyluracil]",–,did not show any significant synergistic effects,–
Cc1nc2ccc(CN(C)c3ccc(C(=O)N[C@@H](CCC(=O)O)C(=O)O)s3)cc2c(=O)[nH]1 [Raltitrexed],did not show any significant synergistic effects,–,–
